From patent US20100305120A1, “COMPOUNDS FOR TREATING MUSCULAR DYSTROPHY” (BIOMARIN IGA LIMITED, priority 2008, published 2010)

What follows are compounds tested on Utrophin A promoter linked to a luciferase reporter gene (assay: Luciferase reporter assay (murine H2K cells), H2K/mdx/Utro A reporter cell line). Settings: 48 h; test compound concentration 0.1 μM; mdx mouse H2K Utrophin A reporter cells; read-out: Activity (luciferase level relative to control).
Format: cell-based
Procedure: Luciferase Reporter Assay (Murine H2K Cells)
The cell line used for the screen is an immortalized mdx mouse H2K cell line that has been stably transfected with a plasmid containing ≈5 kb fragment of the Utrophin A promoter including the first untranslated exon linked to a luciferase reporter gene.
Under conditions of low temperature and interferon containing media, the cells remain as myoblasts. These are plated into 96 well plates and cultured in the presence of compound for three days. The level of luciferase is then determined by cell lysis and reading of the light output from the expressed luciferase gene utilising a plate luminometer.
Luciferase Assay for 96 Well Plates
The H2K/mdx/Utro A reporter cell line cells were plated out into 96 well plates (Falcon 353296, white opaque) at a density of approximately 5000 cells/well in 190 μl normal growth medium. The plates were then incubated at 33° C. in the presence of 10% CO2 for 24 hrs.
Compounds were dosed by adding 10 μl of diluted compound to each well giving a final concentration of 10 μM (where a different final concentration was required, the amount of compound solution added was amended accordingly). The plates were then incubated for a further 48 hrs. Cells were then lysed in situ following the manufacture's protocols (Promega Steady-Glo Luciferase Assay System(E2520). Then counted for 10 seconds using a plate luminometer (Victor1420).
Compounds for screening were stored at −20° C. as 10 mM stocks in 100% DMSO until required.
Biological activity as assessed using the luciferase reporter assay in murine H2K cells, and the results are shown in Table 1, which also lists the concentration of the test compound solution in μM.

Row | SMILES | activity at 0.1 µM [%]
1 | CS(=O)(=O)c1ccc(Cn2nc(C(=O)Nc3ccc4c(c3)OCO4)c3c2CCCC3)cc1 [Compound 149, N-(benzo[d][1,3]dioxol-5-yl)-1-(4-(methylsulfonyl)benzyl)-4,5,6,7-tetrahydro-1H-indazole-3-carboxamide] | < 200

Same assay, conditions: 48 h; test compound concentration 0.3 μM; mdx mouse H2K Utrophin A reporter cells; read-out: Activity (luciferase level relative to control)

Row | SMILES | activity at 0.3 µM [%]
2 | CS(=O)(=O)c1ccc(Cn2nc(NC(=O)Nc3ccc(Cl)cc3)c3ccccc32)cc1 [Compound 118, 1-(4-chlorophenyl)-3-(1-(4-(methylsulfonyl)benzyl)-1H-indazol-3-yl)urea] | < 200

Same assay, conditions: 48 h; test compound concentration 1 μM; mdx mouse H2K Utrophin A reporter cells; read-out: Activity (luciferase level relative to control)

Row | SMILES | activity at 1 µM [%]
3 | CS(=O)(=O)c1ccc(Cn2nc(C(=O)Nc3ccc4c(c3)OCO4)c3c2CCC3)cc1 [Compound 150, N-(benzo[d][1,3]dioxol-5-yl)-1-(4-(methylsulfonyl)benzyl)-1,4,5,6-tetrahydrocyclopenta[c]pyrazole-3-carboxamide] | < 200

Same assay, conditions: 48 h; test compound concentration 10 μM; mdx mouse H2K Utrophin A reporter cells; read-out: Activity (luciferase level relative to control)

Row | SMILES | activity at 10 µM [%]
4 | CC(C)c1ccc(Cn2nc(C(=O)Nc3ccc4c(c3)OCO4)c3ccccc32)cc1 [Compound 119, N-(benzo[d][1,3]dioxol-5-yl)-1-(4-isopropylbenzyl)-1H-indazole-3-carboxamide] | < 200
5 | CS(=O)(=O)c1ccc(Cn2nc(C(=O)Nc3ccc4nccnc4c3)c3ccccc32)cc1 [Compound 110, 1-(4-(methylsulfonyl)benzyl)-N-(quinoxalin-6-yl)-1H-indazole-3-carboxamide] | 301 to 400
6 | CC(C)S(=O)(=O)c1ccc(Cn2nc(C(=O)Nc3ccc4c(c3)OCO4)c3ccccc32)cc1 [Compound 152, N-(benzo[d][1,3]dioxol-5-yl)-1-(4-(isopropylsulfonyl)benzyl)-1H-indazole-3-carboxamide] | < 200
7 | CS(=O)(=O)c1ccc(Cn2nc(C(=O)Nc3ccc4c(c3)OCCO4)c3ccccc32)cc1 [Compound 105, N-(2,3-dihydrobenzo[b][1,4]dioxin-6-yl)-1-(4-(methylsulfonyl)benzyl)-1H-indazole-3-carboxamide] | > 401
8 | COc1ccccc1CNC(=O)Nc1nn(Cc2cc3c(cc2Cl)OCO3)c2ccccc12 [Compound 78, 1-(1-((6-chlorobenzo[d][1,3]dioxol-5-yl)methyl)-1H-indazol-3-yl)-3-(2-methoxybenzyl)urea] | < 200
9 | O=C(Nc1ccc2c(c1)OCCO2)c1nn(Cc2ccc(C(=O)N3CCOCC3)cc2)c2cc(F)ccc12 [Compound 162, N-(2,3-dihydrobenzo[b][1,4]dioxin-6-yl)-6-fluoro-1-(4-(morpholine-4-carbonyl)benzyl)-1H-indazole-3-carboxamide] | 201 to 300
10 | O=C(Nc1ccc(N2CCCCC2)cc1)c1nn(Cc2ccc(-c3ccccc3)cc2)c2ccccc12 [Compound 69, 1-(biphenyl-4-ylmethyl)-N-(4-(piperidin-1-yl)phenyl)-1H-indazole-3-carboxamide] | < 200
11 | CS(=O)(=O)c1cccc(Cn2nc(C(=O)Nc3ccc4c(c3)OCO4)c3ccccc32)c1 [Compound 127, N-(benzo[d][1,3]dioxol-5-yl)-1-(3-(methylsulfonyl)benzyl)-1H-indazole-3-carboxamide] | < 200
12 | CS(=O)(=O)c1ccc(Cn2nc(C(=O)O)c3ccccc32)cc1 [Compound 157, 1-(4-(methylsulphonyl)benzyl)-1H-indazole-3-carboxylic acid] | < 200
13 | CS(=O)(=O)c1ccc(Cn2nc(-c3nc4ccc(Cl)cc4o3)c3ccccc32)cc1 [Compound 95, 6-chloro-2-(1-(4-(methylsulfonyl)benzyl)-1H-indazol-3-yl)benzo[d]oxazole] | < 200
14 | O=C(Nc1ccc2c(c1)OCO2)c1nn(Cc2ccc(C(=O)N3CCCC3)cc2)c2ccccc12 [Compound 142, N-(benzo[d][1,3]dioxol-5-yl)-1-(4-(pyrrolidine-1-carbonyl)benzyl)-1H-indazole-3-carboxamide] | 201 to 300
15 | C#CCN(C)S(=O)(=O)c1ccc(Cn2nc(C(=O)Nc3ccc4c(c3)OCO4)c3ccccc32)cc1 [Compound 21, N-(benzo[d][1,3]dioxol-5-yl)-1-(4-(N-methyl-N-(prop-2-ynyl)sulfamoyl)benzyl)-1H-indazole-3-carboxamide] | > 401
16 | O=C(Nc1ccc(N2CCCCC2)cc1)c1nn(CCOc2ccccc2)c2ccccc12 [Compound 75, 1-(2-phenoxyethyl)-N-(4-(piperidin-1-yl)phenyl)-1H-indazole-3-carboxamide] | 201 to 300
17 | Cc1ccc(NC(=O)Nc2nn(Cc3ccc(COc4ccc5c(c4)OCO5)cc3)c3ccc(C(F)(F)F)cc23)cc1 [Compound 57, 1-(1-(4-((benzo[d][1,3]dioxol-5-yloxy)methyl)benzyl)-5-(trifluoromethyl)-1H-indazol-3-yl)-3-p-tolylurea] | < 200
18 | COc1cccc(NC(=O)c2nn(Cc3ccc(S(C)(=O)=O)cc3)c3ccccc23)c1 [Compound 86, N-(3-methoxyphenyl)-1-(4-(methylsulfonyl)benzyl)-1H-indazole-3-carboxamide] | < 200
19 | CN(C)C(=O)c1cccc(Cn2nc3ccccc3c2C(=O)Nc2ccc3c(c2)OC(F)(F)O3)c1 [Compound 135, N-(2,2-difluorobenzo[d][1,3]dioxol-5-yl)-2-(3-(dimethylcarbamoyl)benzyl)-2H-indazole-3-carboxamide] | 201 to 300
20 | CCN(CC)C(=O)c1ccc(Cn2nc(C(=O)Nc3ccc4c(c3)OCO4)c3ccccc32)cc1 [Compound 151, N-(benzo[d][1,3]dioxol-5-yl)-1-(4-(diethylcarbamoyl)benzyl)-1H-indazole-3-carboxamide] | < 200
21 | CS(=O)(=O)c1ccc(Cn2nc(C(=O)Nc3ccc4c(c3)CCC4)c3ccccc32)cc1 [Compound 130, N-(2,3-dihydro-1H-inden-5-yl)-1-(4-(methylsulfonyl)benzyl)-1H-indazole-3-carboxamide] | 201 to 300
22 | CS(=O)(=O)c1ccc(Cn2nc(C(=S)Nc3ccc4c(c3)OCO4)c3ccccc32)cc1 [Compound 102, N-(benzo[d][1,3]dioxol-5-yl)-1-(4-(methylsulfonyl)benzyl)-1H-indazole-3-carbothioamide] | 201 to 300
23 | CS(=O)(=O)c1ccc(Cn2nc(C(=O)Nc3ccc4c(c3)OCO4)c3ccccc32)cc1 [Compound 4, N-(benzo[d][1,3]dioxol-5-yl)-1-(4-(methylsulfonyl)benzyl)-1H-indazole-3-carboxamide] | 301 to 400
24 | CS(=O)(=O)c1ccc(Cn2nc(C(=O)Nc3ccc(Cl)cc3)c3ccccc32)cc1 [Compound 89, N-(4-chlorophenyl)-1-(4-(methylsulfonyl)benzyl)-1H-indazole-3-carboxamide] | 201 to 300
25 | CS(=O)(=O)c1ccc(Cn2nc(C(=O)Nc3ccc(OC(F)(F)F)cc3)c3ccccc32)cc1 [Compound 23, 1-(4-(methylsulfonyl)benzyl)-N-(4-(trifluoromethoxy)phenyl)-1H-indazole-3-carboxamide] | < 200
26 | O=C(Nc1ccc2c(c1)OCO2)c1nn(Cc2ccc(C(=O)N3CCCCC3)cc2)c2ccccc12 [Compound 93, N-(benzo[d][1,3]dioxol-5-yl)-1-(4-(piperidine-1-carbonyl)benzyl)-1H-indazole-3-carboxamide] | < 200
27 | CS(=O)(=O)c1ccc(Cn2nc(C(=O)Nc3ccc4c(c3)OC(F)(F)O4)c3ccccc32)cc1 [Compound 35, N-(2,2-difluorobenzo[d][1,3]dioxol-5-yl)-1-(4-(methylsulfonyl)benzyl)-1H-indazole-3-carboxamide] | < 200
